Data set [1] concerns Plasmodium berghei. In words: Inhibition of hemozoin formation in Plasmodium berghei infected in mouse. The format is functional.
Data set [2] deals with Hemozoin. In words: Inhibition of beta-hematin formation.
Data set [3] has as its system Plasmodium berghei. In words: Antiplasmodial activity against Plasmodium berghei infected in mouse assessed as reduction in parasitaemia at 105 umol/kg, po. The format is functional. Also noted: scale not given: the % may be the effect or the level left. The following applies: dose 105 µmol/kg.
Data set [4] has as its system Plasmodium berghei. The data set can be described thus: Antiplasmodial activity against Plasmodium berghei infected in mouse assessed as reduction in parasitaemia at 35 umol/kg, sc administered for 4 days. Also noted: scale not given: the % may be the effect or the level left. The format is functional. The following applies: dose 35 µmol/kg, time 4 day.
The subject of data set [5] is A2780. In words: Antiproliferative activity against cisplatin resistant human A2780 cells. The format is functional, cell-based.
Data set [6] concerns MCF7. In words: Antiproliferative activity against human MCF7 cells. The format is functional, cell-based. To be noted: Homo sapiens, MCF7.
For data set [7], the system named is MCF7. The data set can be described thus: Antiproliferative activity against mitoxantrone resistant human MCF7 cells. The format is functional, cell-based.
The subject of data set [8] is A2780. In words: Antiproliferative activity against human A2780 cells. The format is functional, cell-based.
A short description of data set [9]: Antiproliferative activity against HUVEC cells. The format is toxicity, cell-based. The following applies: human.
The next data set has as its system HepG2. In words: Antitumor activity against human HepG2 cells xenografted in nude mouse assessed as reduction in tumor increment rate at 5 mg/kg/day (reference value: 100%). The format is functional. Also noted: scale not given: the % may be the effect or the level left. In general terms: A xenograft is tissue or cells of one species grown in another, often human tumour cells in immunodeficient mice.

In the next data set the test system is Breast carcinoma cell. In words: Antiproliferative activity against human breast cancer cells. The format is functional.
The test system of the next data set is Leukemia cell. The data set can be described thus: Antiproliferative activity against human Leukemia cells. The format is functional.
The target in data set [10] is Hepatocyte growth factor receptor (Homo sapiens, UniProt P08581). The data set can be described thus: Inhibition of c-Met (unknown origin).
A short description of data set [11]: Antiproliferative activity against human CNS cells. The format is functional. The following applies: CNS cell.
The subject of data set [12] is Hep 3B2. In words: Cytotoxicity against human Hep3B cells. The format is functional, cell-based.
Data set [13] has as its system Hep 3B2. The data set can be described thus: Cytotoxicity against human Hep3B cells assessed as relative value at 15 uM after 48 hrs by MTS method. The format is functional. On the technique in general: Formazan colour is commonly taken as a measure of viable cells.
The nature of data set [14]: Cytotoxicity against human SLMT-1 cells.
The target of data set [15] is Cathepsin B (Homo sapiens) (UniProt P07858). In words: Inhibition of human cathepsin B endopeptidase activity at 50 uM relative to control.
Data set [16] deals with Plasmodium falciparum. In words: Antimalarial activity against CQ-resistant Plasmodium falciparum 7G8. The format is functional, organism-based.
Data set [17] relates to Plasmodium falciparum. In words: Antimalarial activity against CQ-sensitive Plasmodium falciparum D6. The format is functional, organism-based.
Another data set relates to Lymphocyte. In words: Cytotoxicity against mouse spleen lymphocytes. The format is toxicity, cell-based.
Data set [18] has as its system Plasmodium falciparum. In words: Antimalarial activity against multidrug resistant Plasmodium falciparum Dd2. The format is functional, organism-based.
A further data set has as its system K562. In words: Cytotoxicity against human K562 cells. The format is functional, cell-based.
Data set [19] concerns the target Phosphatidylinositol 4,5-bisphosphate 3-kinase catalytic subunit gamma isoform (Homo sapiens, UniProt P48736). In words: Inhibition of PI3K gamma (unknown origin).
The test system of the next data set is A549. The data set can be described thus: Cytotoxicity against human A549 cells. The format is functional, cell-based.
Data set [20] deals with Plasmodium berghei. The data set can be described thus: Antiplasmodial activity against Plasmodium berghei infected in mouse assessed as reduction in parasitaemia at 200 mg/kg/day, ip administered for 4 days. The format is functional. Also noted: scale not given: the % may be the effect or the level left. The following applies: time 4 day.
Data set [21] has as its system Plasmodium falciparum. In words: Antimalarial activity against CQ-resistant Plasmodium falciparum RKL9. The format is functional, organism-based.
In data set [22] the test system is Plasmodium falciparum. The data set can be described thus: Antimalarial activity against CQ-sensitive Plasmodium falciparum 3D7. The format is functional, organism-based.
In data set [23] the test system is MDA-MB-231. The data set can be described thus: Antiproliferative activity against human MDA-MB-231 cells. The format is functional, cell-based.
In the next data set the test system is KG-1a. In words: Antiproliferative activity against human KG-1a cells. The format is functional, cell-based.
The subject of the next data set is HeLa. The data set can be described thus: Antiproliferative activity against human HeLa cells. The format is functional, cell-based.
The test system of the next data set is Raji. The data set can be described thus: Cytotoxicity against human Raji cells. The format is functional, cell-based.
Data set [24] deals with MDA-MB-231. In words: Cytotoxicity against human MDA-MB-231 cells. The format is functional, cell-based.
Another data set deals with PC-3. In words: Antiproliferative activity against human PC-3 cells. The format is functional, cell-based.
A further data set concerns KG-1. In words: Cytotoxicity against human KG-1 cells. The format is functional, cell-based.
The subject of data set [25] is Plasmodium falciparum. The data set can be described thus: Selectivity index, ratio of IC50 for Chloroquine resistant Plasmodium falciparum W2 to IC50 for Chloroquine sensitive Plasmodium falciparum 3D7. The format is functional.
For data set [26], the system named is Plasmodium falciparum. In words: Antimalarial activity against CQ-resistant Plasmodium falciparum W2. The format is functional, organism-based.
The subject of data set [27] is Plasmodium berghei. In words: Antiplasmodial activity against Plasmodium berghei infected in mouse assessed as increase in mean survival time at 100 mg/kg, po administered for 3 days (reference value: 7.6 day). The format is functional. The following applies: time 3 day.
Data set [28] deals with Plasmodium berghei. The data set can be described thus: Antiplasmodial activity against Plasmodium berghei ANKA infected in mouse assessed as reduction in parasitaemia at 20 mg/kg/day, ip administered for 4 days. Also noted: scale not given: the % may be the effect or the level left. The format is functional. To be noted: time 4 day.
For data set [29], the system named is Plasmodium falciparum. The data set can be described thus: Antimalarial activity against Plasmodium falciparum 3D7. The format is functional, organism-based.
Data set [30] relates to Plasmodium berghei. The data set can be described thus: Antimalarial activity against Plasmodium berghei ANKA infected in mouse assessed increase in survival time at 20 mg/kg/day, ip for 4 days. The format is functional. To be noted: time 4 day.
The test system of data set [31] is Hemozoin. In words: Inhibition of beta-hematin formation relative to control. To be noted: concentration not given here.
Data set [32] has as its system Plasmodium falciparum. In words: Antimalarial activity against CQ-resistant Plasmodium falciparum Dd2. The format is functional, organism-based.

≈ marks a conversion by molar mass, not a printed value.

Sequence of Hepatocyte growth factor receptor (P08581 whole entry): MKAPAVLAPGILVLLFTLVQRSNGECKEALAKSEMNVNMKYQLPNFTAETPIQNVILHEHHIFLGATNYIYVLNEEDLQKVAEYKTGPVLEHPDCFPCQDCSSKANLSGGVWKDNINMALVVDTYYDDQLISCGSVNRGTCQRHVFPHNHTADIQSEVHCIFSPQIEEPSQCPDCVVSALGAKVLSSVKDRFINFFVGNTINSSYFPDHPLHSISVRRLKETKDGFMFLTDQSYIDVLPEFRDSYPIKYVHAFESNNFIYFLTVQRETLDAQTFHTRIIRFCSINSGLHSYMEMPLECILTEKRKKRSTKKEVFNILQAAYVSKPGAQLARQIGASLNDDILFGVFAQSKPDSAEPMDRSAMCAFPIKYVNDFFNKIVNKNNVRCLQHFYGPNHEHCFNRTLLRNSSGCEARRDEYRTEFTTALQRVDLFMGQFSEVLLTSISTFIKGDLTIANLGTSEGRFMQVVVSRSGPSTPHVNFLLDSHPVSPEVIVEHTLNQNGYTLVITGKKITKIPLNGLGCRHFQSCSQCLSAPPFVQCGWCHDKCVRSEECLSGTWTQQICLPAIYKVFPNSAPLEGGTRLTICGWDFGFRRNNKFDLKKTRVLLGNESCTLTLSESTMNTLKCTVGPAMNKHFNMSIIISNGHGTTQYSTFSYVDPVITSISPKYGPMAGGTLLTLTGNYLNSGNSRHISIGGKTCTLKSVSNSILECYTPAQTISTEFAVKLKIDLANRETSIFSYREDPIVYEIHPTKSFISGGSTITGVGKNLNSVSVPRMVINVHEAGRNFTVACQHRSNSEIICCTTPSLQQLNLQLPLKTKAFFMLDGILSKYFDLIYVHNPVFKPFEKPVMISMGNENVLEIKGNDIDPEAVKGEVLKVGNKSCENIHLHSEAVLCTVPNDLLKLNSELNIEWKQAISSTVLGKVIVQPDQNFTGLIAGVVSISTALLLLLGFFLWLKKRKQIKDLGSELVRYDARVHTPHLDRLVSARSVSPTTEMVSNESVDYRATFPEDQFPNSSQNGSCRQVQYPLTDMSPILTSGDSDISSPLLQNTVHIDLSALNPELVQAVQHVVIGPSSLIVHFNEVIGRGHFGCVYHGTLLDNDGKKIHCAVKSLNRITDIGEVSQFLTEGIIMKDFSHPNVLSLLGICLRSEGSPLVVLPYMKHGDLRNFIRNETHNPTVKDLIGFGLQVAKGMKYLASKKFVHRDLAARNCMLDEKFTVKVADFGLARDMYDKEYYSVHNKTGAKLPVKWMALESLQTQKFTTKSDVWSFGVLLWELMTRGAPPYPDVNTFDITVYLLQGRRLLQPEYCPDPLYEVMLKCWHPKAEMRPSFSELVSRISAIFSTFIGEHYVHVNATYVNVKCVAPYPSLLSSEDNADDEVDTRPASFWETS
Sequence of Phosphatidylinositol 4,5-bisphosphate 3-kinase catalytic subunit gamma isoform (P48736 whole entry, canonical isoform): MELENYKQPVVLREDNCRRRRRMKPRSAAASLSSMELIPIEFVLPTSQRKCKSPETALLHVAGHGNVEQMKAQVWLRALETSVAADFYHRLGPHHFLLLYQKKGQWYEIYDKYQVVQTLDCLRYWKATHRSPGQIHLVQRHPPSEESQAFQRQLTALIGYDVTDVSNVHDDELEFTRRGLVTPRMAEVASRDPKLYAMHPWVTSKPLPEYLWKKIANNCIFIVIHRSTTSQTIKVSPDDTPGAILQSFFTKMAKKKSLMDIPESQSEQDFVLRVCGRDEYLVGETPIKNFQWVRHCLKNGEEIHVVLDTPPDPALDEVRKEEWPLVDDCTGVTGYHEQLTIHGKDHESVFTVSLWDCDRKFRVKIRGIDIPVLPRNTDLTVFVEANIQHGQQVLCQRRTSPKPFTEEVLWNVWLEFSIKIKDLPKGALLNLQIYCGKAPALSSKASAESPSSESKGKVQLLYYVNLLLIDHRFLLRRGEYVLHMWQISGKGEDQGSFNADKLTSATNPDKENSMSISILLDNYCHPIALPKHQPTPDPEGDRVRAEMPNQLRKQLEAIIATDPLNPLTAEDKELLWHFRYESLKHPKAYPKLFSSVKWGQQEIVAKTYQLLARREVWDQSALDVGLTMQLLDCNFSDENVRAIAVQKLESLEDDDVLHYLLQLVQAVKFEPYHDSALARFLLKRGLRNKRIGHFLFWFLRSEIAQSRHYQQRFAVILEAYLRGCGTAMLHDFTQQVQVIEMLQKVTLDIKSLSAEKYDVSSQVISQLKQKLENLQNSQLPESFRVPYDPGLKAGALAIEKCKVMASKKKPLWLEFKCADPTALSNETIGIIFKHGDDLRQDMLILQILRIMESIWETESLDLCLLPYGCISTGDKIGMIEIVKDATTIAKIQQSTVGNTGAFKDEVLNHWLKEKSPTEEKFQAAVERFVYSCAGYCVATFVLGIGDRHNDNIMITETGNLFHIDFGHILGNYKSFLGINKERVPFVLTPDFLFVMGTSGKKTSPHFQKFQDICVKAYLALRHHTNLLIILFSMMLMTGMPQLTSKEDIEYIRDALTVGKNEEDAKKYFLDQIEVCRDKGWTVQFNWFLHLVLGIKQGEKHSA

`C[C@@H]1CCC2[C@@H](C)[C@H](OC(=O)CCC(=O)OCCNc3ccnc4cc(Cl)ccc34)O[C@@H]3O[C@@]4(C)CC[C@@H]1[C@@]23OO4` (stereo partly specified): in the data set with Plasmodium berghei [1], the “inhibition (INH)” value is recorded as 71.9%. Besides, the concentration for half-maximal inhibition (IC50) – broadly, the concentration that gives 50% inhibition – in the data set on Hemozoin [2] is 560000 nM. For the same molecule, the Activity is reported as 78.6% in the data set on Plasmodium berghei [3] and 95.2% in the data set on Plasmodium berghei [4].
For the molecule `COc1ccc(Nc2cc(/C=C/c3ccc([N+](=O)[O-])cc3)nc3cc(OC)c(OC)c(OC)c23)cc1OC`, the IC50 with A2780 [5] was 1130 nM; in the data set with MCF7 [6], 1130 nM; in the data set with MCF7 [7], 1130 nM; in the data set on A2780 [8], 1130 nM; in [9], 7820 nM.
For the molecule `CC(=O)O[C@H]1C(=O)[C@@]2(C)[C@H]([C@H](OC(=O)c3ccccc3)[C@]3(O)C[C@H](OC(=O)[C@H](O)[C@@H](NC(=O)c4ccccc4)c4ccccc4)C(C)=C1C3(C)C)[C@]1(OC(C)=O)CO[C@@H]1C[C@@H]2O` [PACLITAXEL], in the data set with HepG2, the Activity was 19%.
With `COc1cc2nccc(Oc3ccc(NC(=O)C4(C(=O)Nc5ccc(F)cc5)CC4)cc3)c2cc1Oc1ccc(N)cn1`, the GI50 (in the data set on Breast carcinoma cell; with Leukemia cell; in data set [11]) was 290 nM each time. In data set [10], this molecule showed a half-inhibitory concentration (IC50) of 19 nM.
For the molecule `O=S(=O)(Nc1cccc2cccnc12)c1cccc2cccnc12`, the IC50 (in the data set on Hep 3B2 [12]; with MCF7 [6]; in data set [14]) was 1230 nM in each case. The “fold change (FC)” value in the data set with Hep 3B2 [13] came to 0.23.
As to `O=[N+]([O-])c1ccc(O)c2ncccc12`, the inhibition (in general, the percentage by which the read-out fell short of the control) in [15] is 27.7%.
As to `Clc1ccc2c(NCCCN3CCC(Nc4ccnc5cc(Cl)ccc45)CC3)ccnc2c1`, the IC50 worked out at 0.33 nM in the data set with Plasmodium falciparum [16], 0.15 nM with Plasmodium falciparum [17] and 0.36 nM in the data set on Plasmodium falciparum [18]. Besides, the LC50 (as a rule, the concentration lethal to half of the exposed cells or organisms) with Lymphocyte was 190 nM.
`COc1ccc(-c2cc(C(=O)N/N=C(\C=C\c3ccc(Cl)cc3)c3ccc(N)cc3)c3ccccc3n2)cc1`: the IC50 in the data set with K562 is 1910 nM; in [19], 52 nM; in the data set on A549 it was 1910 nM.
As for `Cc1ccc(/C=C2/SC(c3ccc(Cl)cc3)N(Nc3cc(C)c4ccccc4n3)C2=O)cc1` (stereo unspecified), the Activity in the data set with Plasmodium berghei [20] came out at 73.4%. Further, the IC50 was 0.824 µg/mL (≈ 1.75 µM) with Plasmodium falciparum [21] and 0.423 µg/mL in the data set with Plasmodium falciparum [22].
As for `COc1ccc(/C=C/c2cc(Nc3cc(OC)c(OC)c(OC)c3)c3c(OC)c(OC)c(OC)cc3n2)cc1OC`, the IC50 in the data set on A2780 [5] turned out to be 500 nM; with MCF7 [6], 500 nM; in the data set with MCF7 [7] it was 500 nM; in the data set with A2780 [8], 500 nM; in data set [9], 7820 nM.
`COc1ccc2nc(-c3ccc(Br)cc3)cc(-c3nnc(Nc4ccc([N+](=O)[O-])cc4)o3)c2c1`: the IC50 in the data set on MDA-MB-231 [23] amounted to 540 nM; with KG-1a, 1210 nM; in the data set on HeLa it was 50 nM.
For the molecule `COc1cc2nccc(Oc3ccc(NC(=O)C4(C(=O)Nc5ccc(F)cc5)CC4)cc3)c2cc1OC(=O)c1ccc(N)cc1`, the GI50 (in the data set with Breast carcinoma cell; in the data set on Leukemia cell; in data set [11]) was 290 nM in each case. Further, inhibition in data set [10] was half-maximal at 19 nM (IC50).
For the molecule `Cc1cc(Nc2ccc(NC(=O)c3ccc(Nc4ccnc5ccccc45)cc3)cc2)nc(N)n1`, the IC50 in the data set with Raji, in the data set with MDA-MB-231 [24], in the data set on PC-3 and with KG-1 was 1700 nM in each case.
Regarding `CN1CCN(CCNCc2ccc(-c3cc(-c4ccc(CNCCN5CCN(C)CC5)cc4)c4ccccc4n3)cc2)CC1`, the “Ratio IC50” value with Plasmodium falciparum [25] was determined as 20. Moreover, the IC50 in the data set with Plasmodium falciparum [26] came out at 130 nM; with Plasmodium falciparum [22] it was 2420 nM.
Regarding `CCN(CC)CCCC(C)Nc1ccnc2cc(Cl)ccc12` (stereo unspecified) [CHLOROQUINE], the Time with Plasmodium berghei [27] turned out to be 26.2 days; with Plasmodium berghei [30] it was 24.99 days. In addition, the Activity is recorded as 0.32% with Plasmodium berghei [28] and 100% with Plasmodium berghei [20]. Besides, in the data set on Plasmodium falciparum [29], the EC50 (usually the midpoint of the concentration-response curve) amounted to 165 nM. The same molecule registered an IC50 in the data set on Hemozoin [2] of 890000 nM. In addition, the inhibition in the data set with Hemozoin [31] was determined as 52.1%.
`CN(C)CCNc1cc(/C=C/c2cccs2)nc2ccccc12` yielded a half-maximal inhibitory concentration (IC50) in the data set with Plasmodium falciparum [32] of 33 nM.

For the origin of these results see ChEMBL document CHEMBL5230155, “Recent contributions of quinolines to antimalarial and anticancer drug discovery research” (Eur J Med Chem, 2021).
